Measurements as given in PubChem BioAssay AID2305 (GlaxoSmithKline (GSK), 2010).

Each compound was assayed on P. falciparum 3D7 growth, pLDH absorbance (assay: blood-stage malaria parasite growth potency – strain 3D7, dose response (AID 2305)).
Compound `CCNc1cc(C(=O)N[C@@H](Cc2ccoc2)[C@H](O)CNC(C)CCCC(C)C)cc(N2CCCCS2(=O)=O)c1` (stereo not given in full) has an IC50 of 620 nM. `Cc1nc(-c2nc(NCc3ccncc3)ncc2-c2ccsc2)sc1C` showed an IC50 of 990 nM. `COc1ccc(NC(=O)Nc2ccc(-c3cccc(-c4nc5c(C)cccc5[nH]4)c3)cc2)cc1` gave an IC50 of 140 nM. In the case of `COc1cc2nc(N3CCC(CNC(=O)c4ccc(-c5ccc(C#N)cc5C)cc4)CC3)nc(N)c2cc1OC`, the IC50 is reported as 180 nM. Work on `O=C(Cn1c(SCc2cccc(F)c2F)cc(=O)c2ccccc21)N(CCCn1ccnc1)Cc1ccc(-c2ccc(C(F)(F)F)cc2)cc1` yielded an IC50 of 1320 nM. In the case of `Cc1ccccc1C1CCN(C2CCC(NC(=O)c3csc(-c4cccc(Cl)c4)n3)CC2)CC1` (stereo not given), the IC50 is reported as 1150 nM. Compound `COc1ccc2nccc([C@@H](O)CN3CCC(NCc4ccc5c(c4)oc(=S)n5C)CC3)c2c1` has an IC50 of 190 nM. Work on `COc1cc(NC(=O)C(c2ccc(Cl)cc2)C(C)C)cc(OC)c1` (stereo not given) yielded an IC50 of 720 nM. Compound `COc1ccc2c(NN=Cc3cccc(F)c3)cc(C)nc2c1` has an IC50 of 780 nM. `CO/C(=C\C=C\c1cc2cc(Cl)c(Cl)cc2[nH]1)C(=O)N[C@H]1CN2CCC1CC2` was tested, and the IC50 was 1210 nM. `Nc1nccc2ccc(-c3ccc4ncccc4c3)cc12` gave an IC50 of 110 nM. `FC(F)(F)c1cc(C(F)(F)F)c2cc(CNCCCNc3nc4ccccc4[nH]3)[nH]c2c1` showed an IC50 of 140 nM. `CC(C)N(Cc1cnc(N)c(C#N)n1)c1ccc(Cl)c(Cl)c1` was tested, and the IC50 was 840 nM. For `O=C(NC1CC1)c1cnc(N2CCCC(c3ccccc3)C2)c(Cl)c1` (stereo not given), the IC50 was 800 nM. `O=C(Nc1cccc(OC2CCN(Cc3ccsc3)CC2)c1)c1ccc(C(F)(F)F)cc1` showed an IC50 of 770 nM. `O=S(=O)(NCCN1CCCC1)c1cccc(-c2ccc(CNCc3ccccc3)cc2)c1` was tested, and the IC50 was 1000 nM. In the case of `Cc1cc(N[C@@H](CC(C)C)C(=O)NCCc2ccccc2)nc(NCc2ccccc2C)n1`, the IC50 is reported as 910 nM. `CC12CCC(C(=O)N(CC(O)Cn3c4ccc(Cl)cc4c4cc(Cl)ccc43)C1=O)C2(C)C` (stereo not given) gave an IC50 of 840 nM. Compound `CC(CN(C)C)C(=O)Nc1ccc(-c2ccc(-c3nc4ccc(F)cc4[nH]3)cc2)cc1` (stereo not given) has an IC50 of 770 nM. In the case of `CC1(C)N=C(N)NC(NOCC=Cc2ccccc2)=N1`, the IC50 is reported as 230 nM. `O=C(Nc1nc(-c2cc(F)ccc2F)cs1)c1cncc(Br)c1` showed an IC50 of 1080 nM. `CCN(CC)CCCC(C)Nc1c(-c2ccc(Br)cc2)cnc2ccccc12` (stereo not given) was tested, and the IC50 was 700 nM. Work on `CS(=O)(=O)c1cccc(-c2cnc3[nH]cc(-c4ccc(CCC(=O)O)cc4)c3c2)c1` yielded an IC50 of 630 nM. `CCn1c(-c2nonc2N)nc2c(C#CC(C)(C)O)ncc(OCCNCCc3ccc(OC)cc3)c21` was tested, and the IC50 was 960 nM. With `COc1ccc2nccc([C@@H](O)CN3CCC(NC(=O)/C=C/c4cccc(NC(C)=O)c4)CC3)c2c1` the IC50 was 960 nM. Compound `CCN(CC)CCc1ccc2c(=O)cc(CCc3cccc(F)c3F)n(CC(=O)N(C)Cc3ccc(-c4ccc(C(F)(F)F)cc4)cc3)c2c1` has an IC50 of 860 nM. Compound `CCCCCN1CCCC(NS(=O)(=O)c2cccc(C(=O)Nc3cccc(C(F)(F)F)c3)c2)C1` (stereo not given) has an IC50 of 1070 nM. Compound `COc1ccc2[nH]cc(C3CCN(Cc4ccc(NC(=O)c5ccc(-c6ccccc6)cc5)cc4)CC3)c2c1` has an IC50 of 770 nM. `Cc1cccn2c(=O)c3cc(C(=O)NCCN4CCOCC4)c(=N)n(CCc4ccccc4)c3nc12` was tested, and the IC50 was 470 nM. With `Fc1ccc(-c2cncc(-c3ccc(F)cc3)n2)cc1` the IC50 was 640 nM. For `O=C(Nc1ccsc1C(=O)NC1CCCCC1)c1ccc(F)cc1`, the IC50 was 1210 nM. Compound `CS(=O)(=O)c1ccc2c(c1)CCN(CCC1CCC(NC(=O)c3cc4cccc(Br)c4[nH]3)CC1)CC2` (stereo not given) has an IC50 of 1040 nM. With `COc1ccccc1-c1cccc2c(NC(=O)Nc3ccc4nccc(N5CCN(C)CC5)c4c3)ccnc12` the IC50 was 1000 nM. Work on `Cn1ccc2c3c(N)nc(N)nc3ccc21` yielded an IC50 of 900 nM. Work on `COc1cccc(C(=O)NCCc2cccc(Cl)c2)c1Oc1ccccc1` yielded an IC50 of 840 nM. With `CCOc1cc(OCC)c2ccccc2c1CNCCCCCCNCc1c(OCC)cc(OCC)c2ccccc12` the IC50 was 310 nM. Compound `COc1ccc(CNC2CCN(C)CC2)cc1-c1ccc(S(=O)(=O)NCc2ccccc2)c(F)c1` has an IC50 of 800 nM. `COc1ccc(Cl)cc1N1CCN(CCCNC(=O)c2ccc(-c3nc4cc5ccccc5cc4[nH]3)c(F)c2)CC1` gave an IC50 of 800 nM. For `COc1ccc2nccc(NC(=O)N3CCC(NCc4cc5ccccc5[nH]4)CC3)c2n1`, the IC50 was 560 nM. `O=C(COc1cccc([N+](=O)[O-])c1)Nc1ccc(-c2nc3ccccc3[nH]2)cc1` was tested, and the IC50 was 750 nM. `Cc1ccc(C)c2c1[nH]c1ccc(C3=NCCN3)cc12` gave an IC50 of 500 nM. With `CCOc1ccc2c(NN=Cc3c4ccccc4cc4ccccc34)cc(C)nc2c1` the IC50 was 1070 nM. With `CC(C)(CNC(=O)C1CCN(CCOCc2ccccc2)CC1)c1nc(-c2ccc(Cl)c(O)c2)c(-c2ccncc2)[nH]1` the IC50 was 620 nM. In the case of `CCOC(=O)c1cn(CC)c2cc(F)c(OC3C[C@@H]4CC[C@@]3(C)C4(C)C)cc2c1=O` (stereo not given in full), the IC50 is reported as 930 nM. Compound `Nc1ncc(-c2ccc3[nH]ccc3c2)c2ccc(-c3ccncc3)cc12` has an IC50 of 540 nM. `CCCc1cc(Cc2cnc(N)nc2N)cc(CCC)c1OCCCC(=O)OCC` showed an IC50 of 50 nM. In the case of `CC(=O)c1ccc2c(c1)[C@H](NC(=O)c1cccc(Cl)c1Cl)[C@@H](CO)C(C)(C)O2`, the IC50 is reported as 690 nM. With `Oc1ccc2[nH]c(-c3cccc(F)c3)nc2c1CN1CCC(N2CCCC2)CC1` the IC50 was 180 nM. `COc1ccccc1C1CC(c2ccc(C)cc2)=NN1C(=O)c1ccccc1` (stereo not given) was tested, and the IC50 was 890 nM. With `COCCn1c(-c2nc(-c3ccc(F)cc3)cnc2N)nc2ccccc21` the IC50 was 870 nM. For `CN1CCC(C(=O)N(Cc2ccc(-c3ccc(CNCCc4ccc(S(C)(=O)=O)cc4)cn3)cc2)Cc2cccc(F)c2)CC1`, the IC50 was 710 nM. With `CN(C)c1ccc(-c2csc(C(=O)NCC3CCN(CC4CCCCC4)C3)c2)cc1` (stereo not given) the IC50 was 1140 nM. For `Cc1cc(NC(=O)Nc2ccc(Oc3ccccc3)cc2)c2ccccc2n1`, the IC50 was 840 nM. `COC(=O)c1ccc(CC(C)NCC(O)c2cccc(C(F)(F)F)c2)c(OC)c1` (stereo not given) showed an IC50 of 800 nM. `COc1ccc2nc(C)cc(NN=Cc3ccccc3[N+](=O)[O-])c2c1` showed an IC50 of 180 nM. `CCn1c(C=Cc2cc(Br)ccc2O)nc2ccccc2c1=O` showed an IC50 of 650 nM. `Cc1cc(-c2cc3nc4c(c(=O)n3[nH]2)CCCC4)c(C)o1` gave an IC50 of 820 nM. `COc1ccc(Nc2cc(C)nc(NCc3ccc4c(c3)OCO4)n2)cc1` was tested, and the IC50 was 770 nM. `CC(C)NCc1ccc(-c2ccc(-c3nc4ccc(F)cc4[nH]3)cc2)cc1` gave an IC50 of 210 nM. Compound `CN(c1ccnc(Nc2ccc(CS(C)(=O)=O)cc2)n1)C1CCN(Cc2ccccc2)CC1` has an IC50 of 1400 nM. Compound `COc1ccc(OC)c(C=CC(=O)NC2CCC(CN3CCC(c4c[nH]c5ccccc45)CC3)CC2)c1` (stereo not given) has an IC50 of 650 nM. Compound `CN(C)CCCc1cc(NC(=O)Nc2cccc(Cl)c2Cl)ccc1I` has an IC50 of 540 nM. In the case of `NCCNc1ccc([N+](=O)[O-])cc1C(=O)Nc1cccc(Cl)c1`, the IC50 is reported as 1260 nM. `N#Cc1ccnc(-c2ccc(CNC3CCN(CC4Cn5c(=O)ccc6ccc(F)c4c65)CC3)cc2)c1` (stereo not given) was tested, and the IC50 was 1220 nM. `COc1cc(OC)nc(-c2cccc(NC(=O)c3ccc4c(=O)n(CCN5CCCCC5)cnc4c3)c2)n1` gave an IC50 of 740 nM. In the case of `COc1ccc(Nc2ncc3c(-c4cccc(NC(=O)CC(C)C)c4)c[nH]c3n2)cc1OC`, the IC50 is reported as 830 nM. With `CCOc1ccc(NC(C)=O)c(O)c1` the IC50 was 840 nM. In the case of `COc1cccc(CNC[C@@H](O)[C@H](Cc2ccccc2)NC(=O)c2cc(N3CCCC3=O)c3[nH]cc(C(C)C)c3c2)c1`, the IC50 is reported as 530 nM. Work on `CC(C)c1ccc(NC(=O)c2cccc(CN3CCCN(CC4CCCCC4)CC3)c2)cc1` yielded an IC50 of 710 nM. With `CCN(CC)CCN(Cc1ccc(-c2ccc(C(F)(F)F)cc2)cc1)C(=O)Cn1c(CCc2c(F)ccc(F)c2F)nc(=O)c2ccccc21` the IC50 was 240 nM. In the case of `CCOc1c(CNCCCNc2cc(=O)c3ccccc3[nH]2)cc(I)cc1C(C)(C)C`, the IC50 is reported as 700 nM. `CCc1ccccc1N=C1c2c(cccc2[N+](=O)[O-])C(=O)C1C(C)=O` (stereo not given) gave an IC50 of 90 nM. `Nc1nc(N)c2cc(C#Cc3ccc(-c4ccccc4)cc3)ccc2n1` gave an IC50 of 810 nM. With `S=C(NCCCCCN1CCC(c2c[nH]c3ccccc23)CC1)Nc1cccc(I)c1` the IC50 was 840 nM. With `O=c1cc(NCCCCNCc2ccc(Br)c(Br)c2)[nH]c2ccccc12` the IC50 was 860 nM. Compound `NC1CCCN(Cc2ccc(-c3ccc(-c4nc5ccccc5[nH]4)s3)cc2)C1` (stereo not given) has an IC50 of 670 nM. Compound `O=C(Nc1cn(-c2ccc(OCc3cccc(F)c3)c(Cl)c2)c2ncncc12)c1ccncc1` has an IC50 of 170 nM. With `O[C@H](c1cc(C(F)(F)F)nc2c(C(F)(F)F)cccc12)[C@@H]1CCCCN1` the IC50 was 70 nM. With `Oc1cc2c(cc1CN1CCN(Cc3cccs3)CC1)CCC2` the IC50 was 840 nM. For `Cn1ncc2ccc(Nc3nccc(-c4ccc5c(c4)c(N)nn5C)n3)cc21`, the IC50 was 650 nM. Work on `COc1ccc(NC2=C(c3ccccc3)C(=O)c3ccccc32)cn1` yielded an IC50 of 710 nM. `CN1CCN(Cc2ccc(-c3cc4c(Nc5ccc(OCc6cccc(F)c6)c(Cl)c5)ncnc4s3)[nH]2)CC1` was tested, and the IC50 was 770 nM. For `O=C(/C=C/c1ccc(C(F)(F)F)cc1)N1CCC(CCN2CCC(c3c[nH]c4ccccc34)CC2)CC1`, the IC50 was 720 nM. `COc1ccc(C(=O)O)cc1OCc1ccccc1` showed an IC50 of 820 nM. In the case of `CN1CCc2cc(NS(=O)(=O)c3ccc(-c4ccc(Cl)cc4)cc3)c(OCCCN3CCCCC3)cc2CC1`, the IC50 is reported as 960 nM. `COc1ccc(-c2ccc(NC(=O)c3ccc(Cl)cc3)cc2)cc1CN(C)CCO` was tested, and the IC50 was 810 nM. `O=C(CNC1CCCCC1)c1ccc(O)c(O)c1` showed an IC50 of 660 nM. In the case of `N#Cc1c(Cl)cccc1Oc1ccc(S(=O)(=O)N2CCC(CN3CCC(c4c[nH]c5ccccc45)CC3)CC2)cc1`, the IC50 is reported as 750 nM. For `CCCS(=O)(=O)N1CCC(CO)(Cc2ccccc2C(F)(F)F)CC1`, the IC50 was 890 nM. `NC1=NC(=O)C(=Cc2cn(-c3ccccc3)nc2-c2cccc(S(=O)(=O)N3CCCC3)c2)S1` gave an IC50 of 1140 nM. Compound `CN(C)c1ccc(-c2ccc(C(=O)NC3CCN(Cc4ccc(C(C)(C)C)cc4)CC3)s2)cc1` has an IC50 of 970 nM. Compound `FC(F)(F)c1ccc2nc(-c3ccc(-c4cccc(CN5CCC(CCN6CCCCC6)CC5)c4)cc3)[nH]c2c1` has an IC50 of 150 nM. Work on `FC(F)(F)c1ccc2nccc(NN=CC=Cc3ccccc3)c2c1` yielded an IC50 of 1020 nM. `Cn1cnc2c(Nc3ccncc3)nc(-c3ccc4ccccc4c3)nc21` was tested, and the IC50 was 870 nM. `COc1cccc2c(NN=Cc3cccc([N+](=O)[O-])c3)ccnc12` gave an IC50 of 750 nM. Work on `O=C(NCCCCN1CCC(c2nc3ccccc3s2)CC1)c1cc2ccccc2[nH]1` yielded an IC50 of 1020 nM. For `O=C(NCc1ccc(Cl)c(Cl)c1)c1ccc(C2CCCN(Cc3ccc4nc[nH]c4c3)C2)cc1` (stereo not given), the IC50 was 780 nM. `CC(C)C[C@H](Nc1ccnc(NCC2CCCCC2)n1)C(=O)NCCOc1ccccc1` was tested, and the IC50 was 1020 nM. Compound `CCN(CCNC(=O)C1CCN(c2cc(-c3cccc(C)c3)ncn2)CC1)Cc1ccccc1` has an IC50 of 170 nM. With `CN(C)CCN1CCN(Cc2cccc(-c3csc(-c4nc5ccccc5[nH]4)c3)c2)CC1` the IC50 was 400 nM.
